Data on 28 compounds can be found in ChEMBL document CHEMBL1649350, “Receptor-dependent (RD) 3D-QSAR approach of a series of benzylpiperidine inhibitors of human acetylcholinesterase (HuAChE)” (Eur J Med Chem, 2011).

Sequence of Acetylcholinesterase (P22303 whole entry): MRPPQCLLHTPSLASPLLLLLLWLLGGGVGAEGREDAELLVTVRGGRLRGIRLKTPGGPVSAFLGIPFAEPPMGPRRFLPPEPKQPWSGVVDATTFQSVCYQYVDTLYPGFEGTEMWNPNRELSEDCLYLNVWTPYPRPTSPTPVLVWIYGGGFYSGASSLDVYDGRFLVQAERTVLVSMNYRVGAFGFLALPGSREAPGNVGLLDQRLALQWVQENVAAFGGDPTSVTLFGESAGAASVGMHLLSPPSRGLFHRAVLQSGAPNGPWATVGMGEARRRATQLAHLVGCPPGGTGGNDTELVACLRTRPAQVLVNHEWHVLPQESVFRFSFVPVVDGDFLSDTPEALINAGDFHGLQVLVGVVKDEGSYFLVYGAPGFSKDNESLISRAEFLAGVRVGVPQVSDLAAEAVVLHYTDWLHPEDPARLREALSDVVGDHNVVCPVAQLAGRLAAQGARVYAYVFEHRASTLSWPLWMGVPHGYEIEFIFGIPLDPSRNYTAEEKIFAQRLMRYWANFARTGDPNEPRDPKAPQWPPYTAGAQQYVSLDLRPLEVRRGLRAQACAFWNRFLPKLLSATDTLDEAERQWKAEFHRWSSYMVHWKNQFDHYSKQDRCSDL

The assay addresses Acetylcholinesterase (Homo sapiens, UniProt P22303).
Description: Inhibition of human acetylcholinesterase
`O=C(CCC1CCN(Cc2ccccc2)CC1)c1ccc2c(c1)NC(c1ccccc1)N2` (stereo not drawn) had an IC50 of 33.1 nM.
The compound `O=C(CCC1CCN(Cc2ccccc2)CC1)c1cc2c3c(c1)CCN3C(=O)CCC2` gave an IC50 of 52.5 nM.
For `COc1ccc(CN2CCC(CCC(=O)c3cc4c5c(ccn5C(=O)CC4)c3)CC2)cc1` the value was 347 nM; for `O=C(CCC1CCN(Cc2ccc(O)cc2)CC1)c1cc2c3c(ccn3C(=O)CC2)c1`, 0.49 nM; for `O=C(CCC1CCN(Cc2ccc([N+](=O)[O-])cc2)CC1)c1cc2c3c(ccn3C(=O)CC2)c1`, 42.7 nM.
For `CS(=O)(=O)Nc1ccc2c(CCC3CCN(Cc4ccccc4)CC3)noc2c1` the value was 14.1 nM; for `O=C(CCC1CCN(Cc2ccccc2)CC1)c1ccc2c(c1)CNCCC2`, 22.9 nM; for `O=C(CCC1CCN(Cc2ccc(Cl)cc2)CC1)c1cc2c3c(ccn3C(=O)CC2)c1`, 151 nM.
`COc1cccc(CN2CCC(CCC(=O)c3cc4c5c(ccn5C(=O)CC4)c3)CC2)c1` showed an IC50 of 126 nM.
For `O=C(CCC1CCN(Cc2cccc(O)c2)CC1)c1cc2c3c(ccn3C(=O)CC2)c1` the value was 8.71 nM.
For `O=C(CCC1CCN(Cc2ccccc2O)CC1)c1cc2c3c(ccn3C(=O)CC2)c1` the value was 1.1 nM; for `c1ccc(CN2CCC(CCc3noc4cc(C5CCCCC5)ccc34)CC2)cc1`, 0.794 nM; for `O=C(CCC1CCN(Cc2ccccc2)CC1)c1cc2c3c(c1)CC(=O)N3CCC2`, 3.63 nM.
The value for `O=C(CCC1CCN(Cc2ccccc2Cl)CC1)c1cc2c3c(ccn3C(=O)CC2)c1` was 5.13 nM; that for `O=C(CCC1CCN(Cc2ccccc2[N+](=O)[O-])CC1)c1cc2c3c(ccn3C(=O)CC2)c1` was 89.1 nM.
As to `O=C(CCC1CCN(Cc2ccccc2F)CC1)c1cc2c3c(ccn3C(=O)CC2)c1`, the half-inhibitory concentration (IC50) is 2.51 nM.
The value for `O=C(CCC1CCN(Cc2ccccc2)CC1)c1ccc2c(c1)NCCC2` was 166 nM; that for `O=C(CCC1CCN(Cc2ccccc2)CC1)c1ccc2c(c1)CCN2` was 52.5 nM; that for `O=C(CCC1CCN(Cc2cccc(Cl)c2)CC1)c1cc2c3c(ccn3C(=O)CC2)c1` was 4.9 nM.
`O=C(CCC1CCN(Cc2cccc([N+](=O)[O-])c2)CC1)c1cc2c3c(ccn3C(=O)CC2)c1` gave an IC50 of 2.88 nM.
For `O=C(CCC1CCN(Cc2ccccc2)CC1)c1cc2c3c(c1)CCC(=O)N3CCC2` the value was 15.8 nM; for `COc1ccccc1CN1CCC(CCC(=O)c2cc3c4c(ccn4C(=O)CC3)c2)CC1`, 64.6 nM; for `O=C(CCC1CCN(Cc2ccc(F)cc2)CC1)c1cc2c3c(ccn3C(=O)CC2)c1`, 4.57 nM.
For `O=C(CCC1CCN(Cc2ccccc2)CC1)c1ccc2c(c1)CCNCC2` the value was 25.1 nM; for `O=C(CCC1CCN(Cc2ccccc2)CC1)c1ccc2c(c1)CCCN2`, 64.6 nM.
The value for `O=C(CCC1CCN(Cc2cccc(F)c2)CC1)c1cc2c3c(ccn3C(=O)CC2)c1` was 1.29 nM; that for `O=C(CCC1CCN(Cc2ccccc2)CC1)c1cc2c3c(c1)CCN3C(=O)CC2` was 9.77 nM; that for `O=C(CCC1CCN(Cc2ccccc2)CC1)c1ccc2c(c1)CNCCO2` was 39.8 nM.
